Assay results from patent publication US11319321B2, “[1,2,4]triazolo[1,5-a]pyrimidine compounds as PDE2 inhibitors” (Janssen Pharmaceutica NV, priority 2016, dated 2022).
pIC50: −log10 of the molar value. Like-named read-outs stand apart in the source and are kept apart here.

Key:
[1] = biological target: T1, Human recombinant PDE2A (hPDE2A) (Homo sapiens, UniProt O00408); assay: In vitro assay PDE2A (SPA, 3H-cGMP); assay type: biochemical; settings: for IC50: read-out: hPDE2A pIC50 (converted)
T1 construct: made in house; host or cells: Sf9 insect cells (baculovirus)
Procedure: Human recombinant PDE2A (hPDE2A) was expressed in Sf9 cells using a recombinant rPDE10A baculovirus construct. Cells were harvested after 48 h of infection and the hPDE2A protein was purified by metal chelate chromatography on Ni-sepharose 6FF. Tested compounds were dissolved and diluted in 100% DMSO to a concentration 100 fold of the final concentration in the assay. Compound dilutions (0.4 μl) were added in 384 well plates to 20 μl of incubation buffer (50 mM Tris pH 7.8, 8.3 mM MgCl2, 1.7 mM EGTA). 10 μl of hPDE2A enzyme in incubation buffer was added and the reaction was started by addition of 10 μl substrate to a final concentration of 10 μM cGMP and 0.01 μCi ^3H-cGMP. The reaction was incubated for 45 minutes at room temperature. […] After sedimentation of the beads during 30 minutes the radioactivity was measured in a Perkin Elmer Topcount scintillation counter and results were expressed as cpm. For blanc values the enzyme was omitted from the reaction and replaced by incubation buffer. Control values were obtained by addition of a final concentration of 1% DMSO instead of compound.

PDE2A = biological target: T2, PDE2A (Rattus norvegicus, UniProt Q01062); assay: PDE2 occupancy by ex-vivo autoradiography with [3H]B-17a; assay type: in vivo; settings: read-out: PDE2 occupancy at 10 mg/kg
T2 construct: Twenty μm-thick striatal sections were cut; from tissue; host or cells: rat brain, striatal sections
T2 sequence (Q01062 1-928): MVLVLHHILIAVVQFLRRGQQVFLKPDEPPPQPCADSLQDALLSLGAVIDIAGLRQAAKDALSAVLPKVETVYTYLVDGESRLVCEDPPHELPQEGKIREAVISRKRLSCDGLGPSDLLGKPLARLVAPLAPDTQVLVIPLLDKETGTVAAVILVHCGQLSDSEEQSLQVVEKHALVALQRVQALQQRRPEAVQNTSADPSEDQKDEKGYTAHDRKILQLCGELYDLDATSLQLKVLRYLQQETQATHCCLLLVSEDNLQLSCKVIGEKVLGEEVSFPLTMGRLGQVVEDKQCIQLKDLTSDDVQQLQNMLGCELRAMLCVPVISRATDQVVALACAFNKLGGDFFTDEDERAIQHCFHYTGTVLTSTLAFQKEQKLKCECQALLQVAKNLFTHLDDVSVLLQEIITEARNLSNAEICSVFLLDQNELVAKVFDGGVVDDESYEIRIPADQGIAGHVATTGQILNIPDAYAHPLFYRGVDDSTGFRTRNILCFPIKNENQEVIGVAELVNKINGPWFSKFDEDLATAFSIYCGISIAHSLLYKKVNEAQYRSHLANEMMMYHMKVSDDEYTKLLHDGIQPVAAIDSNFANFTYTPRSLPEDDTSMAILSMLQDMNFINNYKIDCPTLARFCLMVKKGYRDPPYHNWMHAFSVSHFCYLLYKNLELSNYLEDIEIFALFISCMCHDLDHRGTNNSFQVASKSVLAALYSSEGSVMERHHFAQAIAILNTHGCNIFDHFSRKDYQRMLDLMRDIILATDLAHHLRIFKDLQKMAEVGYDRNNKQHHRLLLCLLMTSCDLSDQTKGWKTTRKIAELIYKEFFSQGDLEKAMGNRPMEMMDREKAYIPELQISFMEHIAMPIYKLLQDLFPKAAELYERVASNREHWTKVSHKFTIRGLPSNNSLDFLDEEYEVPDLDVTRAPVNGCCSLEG
Procedure: Brains were immediately removed from the skull and rapidly frozen in dry-ice cooled 2-methylbutane (−40° C.).
After thawing, sections were dried under a cold stream of air and incubated for one minute with 30 nM [^3H]B-17a in Tris-HCl (50 mM, pH7.4) containing 0.3% BSA. Brain sections from drug-treated and vehicle-treated animals were incubated in parallel. […] After incubation, the excess of [^3H]B-17a was washed off in ice-cold buffer 2 times 10 minutes, followed by a quick dip in distilled water. The sections were then dried under a stream of cold air.
Brain sections were loaded in a […] (Biospace, Paris) for 4 h and radioactivity emerging from delineated brain area was quantified using the Beta vision program (Biospace, Paris). Specific binding was determined as the difference between total binding in the striatum and non-specific binding in the cerebellum. Percentage receptor occupancy of the drug administered to the animal corresponded to 100% minus the percentage receptor labeled in the treated animal. For the determination of ED50-values, the percentage of receptor occupancy was plotted against dose and the sigmoidal log dose-effect curve of best fit was calculated by non-linear regression analysis, using the GraphPad Prism program.

hPDE3B = assay: In vitro assay PDE3 (SPA, 3H-cAMP); assay type: biochemical, human; settings: 0.4 μM cAMP substrate; for hPDE3B Emax: in % (unit assumed)
hPDE10A2 = hPDE10A2 (Homo sapiens, UniProt Q9Y233); assay: biochemical; settings: 60 nM cAMP substrate; for IC50: read-out: hPDE10A2 or rPDE10A2 pIC50 (converted); for Emax: read-out: hPDE10A2 or rPDE10A2 Emax, human clone
Procedure: (§1) Rat recombinant PDE10A (rPDE10A2) was expressed in Sf9 cells using a recombinant rPDE10A baculovirus construct. Cells were harvested after 48 h of infection and the rPDE10A protein was purified by metal chelate chromatography on Ni-sepharose 6FF. Tested compounds were dissolved and diluted in 100% DMSO to a concentration 100 fold of the final concentration in the assay. Human recombinant PDE10A ([…]) was expressed in Sf9 cells using a recombinant hPDE10A baculovirus that was made and amplified in house. Cells were harvested after 72 h of infection and the hPDE10A protein was purified by metal chelate chromatography on Ni-sepharose. Compound dilutions (0.4 μl) were added in 384 well plates to 20 μl of incubation buffer (50 mM Tris pH 7.8, 8.3 mM MgCl2, 1.7 mM EGTA). 10 μl of rPDE10A or hPDE10A enzyme in incubation buffer was added and the reaction was started by addition of 10 μl substrate to a final concentration of 60 nM cAMP and […] ^3H-cAMP. The reaction was incubated for 60 minutes at room temperature. After incubation, the reaction was stopped with 20 μl of stop solution consisting of 17.8 mg/ml PDE SPA (scintillation proximity assay) beads. After sedimentation of the beads during 30 minutes the radioactivity was measured in a Perkin Elmer Topcount scintillation counter and results were expressed as cpm. For blanc values the enzyme was omitted from the reaction and replaced by incubation buffer. Control values were obtained by addition of a final concentration of 1% DMSO instead of compound. A best fit curve is fitted by a minimum sum of squares method to the plot of % of control value substracted with blanc value versus compound concentration and the half maximal inhibitory concentration (IC50) value is derived from this curve.

rPDE10A2 = biological target: T3, rPDE10A2 (Rattus norvegicus, UniProt Q9QYJ6); assay: In vitro assay PDE10A, rat clone (SPA, 3H-cAMP); assay type: biochemical; settings: for IC50: rat clone (r), 60 nM cAMP substrate, read-out: hPDE10A2 or rPDE10A2 pIC50 (converted); for Emax: read-out: hPDE10A2 or rPDE10A2 Emax
T3 construct: made in house; host or cells: Sf9 insect cells (baculovirus)
T3 sequence (Q9QYJ6 1-794): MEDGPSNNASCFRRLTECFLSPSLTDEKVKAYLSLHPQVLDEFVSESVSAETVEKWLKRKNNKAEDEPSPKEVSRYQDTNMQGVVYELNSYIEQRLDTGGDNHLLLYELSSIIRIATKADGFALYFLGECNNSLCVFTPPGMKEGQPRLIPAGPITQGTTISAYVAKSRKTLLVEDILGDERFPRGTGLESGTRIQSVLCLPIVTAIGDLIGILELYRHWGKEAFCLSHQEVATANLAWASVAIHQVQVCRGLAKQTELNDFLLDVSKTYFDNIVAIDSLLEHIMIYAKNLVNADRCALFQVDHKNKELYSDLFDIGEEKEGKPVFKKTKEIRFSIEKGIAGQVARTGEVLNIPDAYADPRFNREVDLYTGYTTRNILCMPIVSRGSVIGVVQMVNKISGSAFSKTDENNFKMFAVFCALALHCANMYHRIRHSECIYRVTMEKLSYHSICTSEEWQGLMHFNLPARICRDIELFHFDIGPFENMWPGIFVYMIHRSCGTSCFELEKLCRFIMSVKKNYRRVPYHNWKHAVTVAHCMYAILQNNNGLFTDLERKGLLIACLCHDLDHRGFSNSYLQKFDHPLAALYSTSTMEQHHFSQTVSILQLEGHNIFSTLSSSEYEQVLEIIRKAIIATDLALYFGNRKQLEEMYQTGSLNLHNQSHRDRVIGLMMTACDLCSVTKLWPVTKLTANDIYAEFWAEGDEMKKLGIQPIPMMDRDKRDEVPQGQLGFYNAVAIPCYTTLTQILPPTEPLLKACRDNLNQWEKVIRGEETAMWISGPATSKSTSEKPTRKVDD
Procedure: as §1

[2] = hPDE2A pIC50, 10 μM cGMP substrate
[3] = male Wistar rats, 10 mg/kg SC (subcutaneous), striatum, percentage occupancy

T1 sequence (O00408 whole entry): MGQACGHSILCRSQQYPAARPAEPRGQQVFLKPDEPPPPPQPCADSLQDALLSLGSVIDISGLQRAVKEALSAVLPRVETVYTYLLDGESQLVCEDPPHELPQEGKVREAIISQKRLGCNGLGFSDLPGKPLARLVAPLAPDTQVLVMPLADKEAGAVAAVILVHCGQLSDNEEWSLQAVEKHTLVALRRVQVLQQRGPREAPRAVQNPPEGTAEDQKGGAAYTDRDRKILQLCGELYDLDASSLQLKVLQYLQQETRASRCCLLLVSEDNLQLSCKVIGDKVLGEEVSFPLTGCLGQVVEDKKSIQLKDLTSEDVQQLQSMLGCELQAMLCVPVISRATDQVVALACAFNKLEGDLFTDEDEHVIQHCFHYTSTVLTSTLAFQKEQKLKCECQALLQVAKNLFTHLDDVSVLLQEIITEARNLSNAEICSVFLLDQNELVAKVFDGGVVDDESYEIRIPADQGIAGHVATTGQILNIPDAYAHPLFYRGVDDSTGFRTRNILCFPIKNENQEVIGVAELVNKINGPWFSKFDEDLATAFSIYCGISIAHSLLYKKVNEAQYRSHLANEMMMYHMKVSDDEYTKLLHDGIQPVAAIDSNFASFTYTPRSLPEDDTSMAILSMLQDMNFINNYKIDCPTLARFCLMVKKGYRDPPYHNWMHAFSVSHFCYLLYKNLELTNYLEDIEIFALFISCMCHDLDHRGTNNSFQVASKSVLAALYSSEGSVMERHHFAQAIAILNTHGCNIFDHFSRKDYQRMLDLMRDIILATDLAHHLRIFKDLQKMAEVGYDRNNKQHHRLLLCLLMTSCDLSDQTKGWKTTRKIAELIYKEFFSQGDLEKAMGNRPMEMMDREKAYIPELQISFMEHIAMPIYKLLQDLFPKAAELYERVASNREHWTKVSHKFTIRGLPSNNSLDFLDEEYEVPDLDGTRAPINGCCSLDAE
Chain of hPDE10A2 (Q9Y233 267-1055): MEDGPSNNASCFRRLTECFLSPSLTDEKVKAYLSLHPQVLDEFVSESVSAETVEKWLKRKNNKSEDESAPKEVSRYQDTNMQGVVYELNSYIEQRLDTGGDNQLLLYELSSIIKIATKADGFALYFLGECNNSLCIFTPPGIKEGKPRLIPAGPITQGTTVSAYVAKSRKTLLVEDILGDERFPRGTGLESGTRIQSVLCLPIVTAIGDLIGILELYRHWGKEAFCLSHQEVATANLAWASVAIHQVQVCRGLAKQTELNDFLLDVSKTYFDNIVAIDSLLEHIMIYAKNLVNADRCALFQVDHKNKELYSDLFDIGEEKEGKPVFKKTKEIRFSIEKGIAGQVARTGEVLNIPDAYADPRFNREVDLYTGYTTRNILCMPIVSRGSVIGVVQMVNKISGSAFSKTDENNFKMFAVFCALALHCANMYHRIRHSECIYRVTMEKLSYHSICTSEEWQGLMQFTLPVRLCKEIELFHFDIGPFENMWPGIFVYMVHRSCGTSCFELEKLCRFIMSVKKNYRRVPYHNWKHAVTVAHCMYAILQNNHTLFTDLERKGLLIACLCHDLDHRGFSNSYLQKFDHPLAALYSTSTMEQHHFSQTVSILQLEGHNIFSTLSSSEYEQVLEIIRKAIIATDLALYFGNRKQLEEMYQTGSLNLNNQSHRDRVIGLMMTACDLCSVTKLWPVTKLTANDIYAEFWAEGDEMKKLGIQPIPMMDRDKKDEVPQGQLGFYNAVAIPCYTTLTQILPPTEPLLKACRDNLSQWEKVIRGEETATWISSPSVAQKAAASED

SMILES	pIC50 [1]	Emax ([1]; 10 μM cGMP substrate)	receptor occupancy at 10 mg/kg (PDE2A; po)	hPDE3B Emax (hPDE3B)	IC50 (hPDE10A2; human clone)	Emax (hPDE10A2)	IC50 (rPDE10A2)	Emax (rPDE10A2)	hPDE3B pIC50 (hPDE3B)	IC50 ([1]; 10 μM cGMP substrate)	pIC50 [1, 2]	receptor occupancy at 10 mg/kg (PDE2A; [3])	melting point	hPDE2A Emax ([1]; 10 μM cGMP substrate)	hPDE10A2 or rPDE10A2 Emax (hPDE10A2; human clone)
Cc1cc(CN2CC[C@@H](C)[C@H](c3cc(C(F)F)nc4ncnn34)C2)cc(C)c1Cl.Cl [Compound 36]	7.25	100%	0%	43	3720 nM	82%									
Cc1cc(CN2CCCC(C)(c3cc(C(F)F)nc4ncnn34)C2)cc(Cl)n1 (stereo not drawn) [Compound 28]	5.25	16%		10			> 10000 nM	7.2%	<5						
Cc1cc([C@@H](C)N2CC[C@@H](C)[C@H](c3cc(C(F)F)nc4ncnn34)C2)cc(C2CC2)n1 (relative stereo) [Compound 3]		100%	21%	19	1260 nM	91%			<5	13.5 nM					
C[C@@H]1CCN(Cc2cc3ccccc3cn2)C[C@H]1c1cc(C(F)F)nc2ncnn12 [Compound 8]		100%		61	1480 nM	85%			5.09		8.07	0%			
Cc1cc(C(C)N2CC[C@@H](C)[C@H](c3cc(C(F)F)nc4ncnn34)C2)cc(C)n1 (single isomer, unassigned) [Compound 1a, 5-(difluoromethyl)-7-[(3 S,4R)-1-[(1R*)-1-(2,6-dimethyl-4-pyridyl)ethyl]-4-methyl-3-piperidyl]-[1,2,4]triazolo[1,5-a]pyrimidine]		99%		34	5620 nM	64%			<5		6.99		141.46 °C		
Cc1cc(CN2CC[C@@H](C)[C@H](c3cc(C(F)F)nc4ncnn34)C2)cc(C)n1.Cl [Compound 33]	7.65	96%		8	4070 nM	72%			<5			37%			
Cc1cc(C(C)N2CC[C@@H](C)[C@H](c3cc(C(F)F)nc4ncnn34)C2)cc(C)n1 (single isomer, unassigned) [Compound 1b, 5-(difluoromethyl)-7-[(3 S,4R)-1-[(1S*)-1-(2,6-dimethyl-4-pyridyl)ethyl]-4-methyl-3-piperidyl]-[1,2,4]triazolo[1,5-a]pyrimidine]				19	2880 nM				<5		7.93	42%		100	80
FC(F)c1cc(C2CCCN(Cc3cc4ccccc4o3)C2)n2ncnc2n1 (stereo not drawn) [Compound 37]		81%		88			1050 nM	50.7%	5.92		6.70				
C[C@@H]1CCN(Cc2ccc3nccn3c2)C[C@H]1c1cc(C(F)F)nc2ncnn12 [Compound 34]	7.64	91%	0%	18	4680 nM	67%			<5						
C[C@@H]1CCN(Cc2cc3ccccc3o2)C[C@H]1c1cc(C(F)F)nc2ncnn12.Cl [Compound 38]		88%		28	4680 nM	69%			<5		6.79				
C[C@@H]1CCN(Cc2ccc(F)c(F)c2)C[C@@H]1c1cc(C(F)F)nc2ncnn12 [Compound 42]		22%		19	> 10000 nM	45%			<5	3390 nM					
Cc1cc(CN2CC[C@@H](C)[C@H](c3cc(C(F)F)nc4ncnn34)C2)ccn1.Cl [Compound 15]	7.02	95%		17	~10000 nM	45%			<4.52						
